Measurements taken from US20080139554A1, “SPIRO-PIPERIDINE DERIVATIVES” (priority 2006, published 2008).
pKi: −log10 of the molar value.

target: T1, human V1a receptor (Homo sapiens, UniProt P37288); test: human V1a receptor binding (3H-Vasopressin SPA); details: displacement of 3H-Vasopressin; membranes of HEK293 cells transiently transfected with human V1a receptor; Ki by Cheng-Prussoff equation
T1 construct: expressed in transfected cells; host or cells: HEK293 cells, transiently transfected; cell membranes
T1 sequence (P37288 whole entry): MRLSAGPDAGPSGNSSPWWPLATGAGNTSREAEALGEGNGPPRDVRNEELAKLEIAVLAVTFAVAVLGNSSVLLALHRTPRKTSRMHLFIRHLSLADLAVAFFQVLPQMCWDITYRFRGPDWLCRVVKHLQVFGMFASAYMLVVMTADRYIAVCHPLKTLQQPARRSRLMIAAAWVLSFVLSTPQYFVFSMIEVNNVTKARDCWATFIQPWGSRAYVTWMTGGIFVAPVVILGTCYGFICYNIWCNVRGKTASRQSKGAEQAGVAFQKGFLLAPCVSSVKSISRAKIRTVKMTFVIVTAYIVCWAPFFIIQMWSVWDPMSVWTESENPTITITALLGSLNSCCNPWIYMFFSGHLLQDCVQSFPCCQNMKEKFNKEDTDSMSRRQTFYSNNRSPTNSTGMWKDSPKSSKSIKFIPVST
Protocol: The human V1a receptor was cloned by RT-PCR from total human liver RNA. The coding sequence was subcloned in an expression vector after sequencing to confirm the identity of the amplified sequence. […] Cell membranes were prepared from HEK293 cells transiently transfected with the expression vector and grown in 20 liter fermenters with the following protocol.
50 g of cells were resuspended in 30 ml freshly prepared ice cold Lysis buffer (50 mM HEPES, 1 mM EDTA, 10 mM MgCl2 adjusted to pH=7.4+complete cocktail of protease inhibitor (Roche Diagnostics)). The mixture was homogenized with Polytron for 1 min and sonicated on ice for 2×2 minutes at 80% intensity (Vibracell sonicator). The preparation was centrifuged 20 min at 500 g at 4° C., the pellet was discarded and the supernatant centrifuged 1 hour at 43'000 g at 4° C. (19'000 rpm). The pellet was resuspended in 12.5 ml Lysis buffer+12.5 ml Sucrose 20% and homogenized using a Polytron for 1-2 min. The protein concentration was determined by the Bradford method and aliquots were stored at −80° C. until use. For binding studies 60 mg Yttrium silicate SPA beads (Amersham) were mixed with an aliquot of membrane in binding buffer (50 mM Tris, 120 mM NaCl, 5 mM KCl, 2 mM CaCl2, 10 mM MgCl2) for 15 minutes with mixing. 50 ul of bead/membrane mixture was then added to each well of a 96 well plate, followed by 50 ul of 4 nM 3H-Vasopressin (American Radiolabeled Chemicals). For total binding measurement, 100 ul of binding buffer were added to the respective wells; for non-specific binding, 100 ul of 8.4 mM cold vasopressin were added; and for compound testing, 100 ul of a serial dilution of each compound in 2% DMSO was added. The plate was incubated 1 h at room temperature, centrifuged 1 min at 1000 g and counted on a Packard Top-Count. Non-specific binding counts were subtracted from each well and data was normalized to the maximum specific binding set at 100%. To calculate an IC 50 the curve was fitted using a non-linear regression model (XLfit) and the Ki was calculated using the Cheng-Prussoff equation.

Row | pKi | Structure (SMILES)
1 | 7.38 | O=C1OC2(CCN(C(=O)c3cc4cc(Cl)ccc4[nH]3)CC2)c2ccc(F)cc21 [Example 1, 1′-[(5-chloro-1H-indol-2-yl)carbonyl]-5-fluoro-3H-spiro[2-benzofuran-1,4′-piperidin]-3-one]
2 | 8.18 | N#CCc1cc(Cl)cc2cc(C(=O)N3CCC4(CC3)OC(=O)c3ccccc34)[nH]c12 [Example 5, {5-chloro-2-[(3-oxo-1′H,3H-spiro[2-benzofuran-1,4′-piperidin]-1′-yl)carbonyl]-1H-indol-7-yl}acetonitrile]
3 | 8.11 | CN(C)CCNC(=O)Cc1cc(Cl)cc2cc(C(=O)N3CCC4(CC3)OCc3ccccc34)[nH]c12 [Example 13, 2-[5-chloro-2-(1′H,3H-spiro[2-benzofuran-1,4′-piperidin]-1′-ylcarbonyl)-1H-indol-7-yl]-N-[2-(dimethylamino)ethyl]acetamide]
4 | 8.14 | Cc1c(C(=O)N2CCC3(CC2)COc2ccccc23)[nH]c2c(C)cccc12 [Example 26, 1′-[(3,7-dimethyl-1H-indol-2-yl)carbonyl]spiro[1-benzofuran-3,4′-piperidine]]
5 | 7.49 | O=C1OC2(CCN(C(=O)c3cc4cc(Cl)ccc4[nH]3)CC2)c2ccccc21 [Example 2, 1′-[(5-chloro-1H-indol-2-yl)carbonyl]-3H-spiro[2-benzofuran-1,4′-piperidin]-3-one]
6 | 8.26 | O=C(c1cc2cc(Cl)ccc2[nH]1)N1CCC2(CC1)OCc1ccccc12 [Example 9, 1′-[(5-chloro-1H-indol-2-yl)carbonyl]-3H-spiro[2-benzofuran-1,4′-piperidine]]
7 | 7.76 | CN(C)C(=O)Cn1c(C(=O)N2CCC3(CC2)OC(=O)c2ccccc23)cc2cc(Cl)ccc21 [Example 4, 2-{5-chloro-2-[(3-oxo-1′H,3H-spiro[2-benzofuran-1,4′-piperidin]-1′-yl)carbonyl]-1H-indol-1-yl}-N,N-dimethylacetamide]
8 | 7.67 | CN1CCN(Cc2cc(Cl)cc3cc(C(=O)N4CCC5(CC4)OCc4ccccc45)[nH]c23)CC1 [Example 12, 1′-({5-chloro-7-[(4-methylpiperazin-1-yl)methyl]-1H-indol-2-yl}carbonyl)-3H-spiro[2-benzofuran-1,4′-piperidine]]
9 | 8.44 | CN(C)Cc1cc(Cl)cc2cc(C(=O)N3CCC4(CC3)OCc3ccccc34)[nH]c12 [Example 15, 1-[5-chloro-2-(1′H,3H-spiro[2-benzofuran-1,4′-piperidin]-1′-ylcarbonyl)-1H-indol-7-yl]-N,N-dimethylmethanamine]
10 | 8.68 | N#CCc1cc(Cl)cc2cc(C(=O)N3CCC4(CC3)OCc3ccccc34)[nH]c12 [Example 10, [5-chloro-2-(1′H,3H-spiro[2-benzofuran-1,4′-piperidin]-1′-ylcarbonyl)-1H-indol-7-yl]acetonitrile]
11 | 7.75 | O=C(c1cc2cc(F)ccc2[nH]1)N1CCC2(CC1)OCc1ccccc12 [Example 6, 1′-[(5-fluoro-1H-indol-2-yl)carbonyl]-3H-spiro[2-benzofuran-1,4′-piperidine]]
12 | 8.42 | O=C(c1cc2cc(Cl)cc(CN3CCOCC3)c2[nH]1)N1CCC2(CC1)OCc1ccccc12 [Example 11, 1′-{[5-chloro-7-(morpholin-4-ylmethyl)-1H-indol-2-yl]carbonyl}-3H-spiro[2-benzofuran-1,4′-piperidine]]
13 | 8.01 | Cc1ccc2c(C)c(C(=O)N3CCC4(CC3)COc3ccccc34)[nH]c2c1C [Example 24, 1′-[(3,6,7-trimethyl-1H-indol-2-yl)carbonyl]spiro[1-benzofuran-3,4′-piperidine]]
14 | 7.52 | COc1c(C(=O)N2CCC3(CC2)OCc2ccccc23)[nH]c2cccc(Br)c12 [Example 8, 1′-[(4-bromo-3-methoxy-1H-indol-2-yl)carbonyl]-3H-spiro[2-benzofuran-1,4′-piperidine]]
15 | 7.67 | N#CCn1c(C(=O)N2CCC3(CC2)C(=O)Nc2ccc(Br)cc23)cc2cc(Cl)ccc21 [Example 46, {2-[(5-Bromo-2-oxo-1,2-dihydro-1′H-spiro[indole-3,4′-piperidin]-1′-yl)carbonyl]-5-chloro-1H-indol-1-yl}acetonitrile]

Row | Structure (SMILES) | pKi
16 | CN1CCN(C(=O)Cc2cc(Cl)cc3cc(C(=O)N4CCC5(CC4)OCc4ccccc45)[nH]c23)CC1 [Example 14, 1′-({5-chloro-7-[2-(4-methylpiperazin-1-yl)-2-oxoethyl]-1H-indol-2-yl}carbonyl)-3H-spiro[2-benzofuran-1,4′-piperidine]] | 8.56
